Data: US7067665B2, “Oxybenzamide derivatives useful for inhibiting factor Xa or Vlla” (Sanofi-Aventis Deutschland GmbH, priority 2000, dated 2006)
Read-outs that look alike come from different tables or passages of the source.

Target: T1, human factor Xa (Homo sapiens, UniProt P00742)
T1 construct: 25 μl human factor Xa (Enzyme Research Laboratories, Inc; South Bend, Ind.); purchased Enzyme Research Laboratories, Inc; South Bend, Ind
Test: Factor Xa chromogenic assay (substrate S-2765);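 also: purified enzyme, compound preincubated with the enzyme for 10 min before substrate addition starts the reaction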
Type: biochemical
Settings: read-out: Ki(FXa)

[1] = inhibition constant for inhibition of factor Xa, IC50 corrected for substrate competition, 25° C., enzyme 0.5 nM, substrate 140 μM

T1 sequence (P00742 235-488 limits assumed): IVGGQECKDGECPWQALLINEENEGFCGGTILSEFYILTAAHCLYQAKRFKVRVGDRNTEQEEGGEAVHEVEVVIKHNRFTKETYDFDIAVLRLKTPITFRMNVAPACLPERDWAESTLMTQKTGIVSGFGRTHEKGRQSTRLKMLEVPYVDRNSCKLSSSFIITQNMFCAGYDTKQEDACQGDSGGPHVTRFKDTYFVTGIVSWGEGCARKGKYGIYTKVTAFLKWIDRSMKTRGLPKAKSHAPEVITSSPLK
T1 sequence (P00742 41-179 partner limits assumed): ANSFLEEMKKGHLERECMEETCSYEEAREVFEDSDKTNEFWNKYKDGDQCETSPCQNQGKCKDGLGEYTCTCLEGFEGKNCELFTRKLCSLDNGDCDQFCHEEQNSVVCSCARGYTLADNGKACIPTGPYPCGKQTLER

SMILES | Ki [1] | Ki
COc1ccc(C(=O)N2CCN(Cc3ccccn3)CC2)cc1OCCc1ccc(Cl)cc1Cl [Example 2, {3-[2-(2,4-Dichlorophenyl)-ethoxy]-4-methoxy-phenyl}-(4-pyridin-2-ylmethyl-piperazin-1-yl)-methanone] | 1.54 µM | 
COc1ccc(C(=O)N2CCN(c3ccncc3)CC2)cc1OCCc1ccc(Cl)cc1Cl [Example 3, {3-[2-(2,4-Dichlorophenyl)-ethoxy]-4-methoxy-phenyl}-(4-pyridin-4-yl-piperazin-1-yl)-methanone] | 5.41 µM | 
Cc1ccc(C(=O)N2CCN(Cc3ccncc3)CC2)cc1OCCc1ccc(Cl)cc1Cl [Example 4, {3-[2-(2,4-Dichlorophenyl)-ethoxy]-4-methyl-phenyl}-(4-pyridin-4-ylmethyl-piperazin-1-yl)-methanone] |  | 0.298 µM
COc1ccc(C(=O)N2CCN(Cc3ccc(F)cc3)CC2)cc1OCCc1ccc(Cl)cc1Cl [Example 12, {3-[2-(2,4-Dichlorophenyl)-ethoxy]-4-methoxy-phenyl}-[4-(4-fluorobenzyl)-piperazin-1-yl]-methanone] |  | 3.01 µM
COc1ccc(C(=O)N2CCN(CC(=O)N3CCCC3)CC2)cc1OCCc1ccc(Cl)cc1Cl [Example 14, 2-(4-{3-[2-(2,4-Dichlorophenyl)-ethoxy]-4-methoxy-benzoyl}-piperazin-1-yl)-1-pyrrolidin-1-yl-ethanone] | 2.18 µM | 
COc1ccc(C(=O)NCCCN2CCCCC2)cc1OCCc1ccc(Cl)cc1Cl [Example 15, 3-[2-(2,4-Dichlorophenyl)-ethoxy]-4-methoxy-N-(3-piperidin-1-yl-propyl)-benzamide] | 2.22 µM | 
Cc1ccc(C(=O)N2CCN(Cc3cc[n+]([O-])cc3)CC2)cc1OCCc1ccc(Cl)cc1Cl [Example 17, {3-[2-(2,4-Dichloro-phenyl)-ethoxy]-4-methyl-phenyl}-[4-(1-oxy-pyridin-4-ylmethyl)-piperazin-1-yl]-methanone] | 0.407 µM | 
COc1cc(C(=O)N2CCN(Cc3ccncc3)CC2)cc(OCCc2ccc(Cl)cc2Cl)c1Br [Example 19, {4-Bromo-3-[2-(2,4-dichlorophenyl)-ethoxy]-5-methoxyphenyl}-(4-pyridin-4-ylmethyl-piperazin-1-yl)-methanone] |  | 0.095 µM

Further compounds by falling Ki [1], results first:

Ki [1] | Ki | SMILES
6.2 µM |  | O=C(c1ccc(CO)c(OCCc2ccc(Cl)cc2Cl)c1)N1CCN(Cc2cc[n+]([O-])cc2)CC1 [Example 18, {3-[2-(2,4-Dichloro-phenyl)-ethoxy]-4-hydroxymethyl-phenyl}-[4-(1-oxy-pyridin-4-ylmethyl)-piperazin-1-yl]-methanone]
4.22 µM |  | COc1ccc(C(=O)NCCN2CCCCC2)cc1OCCc1ccc(Cl)cc1Cl [Example 16, 3-[2-(2,4-Dichloro-phenyl)-ethoxy]-4-methoxy-N-(2-piperidin-1-yl-ethyl)-benzamide]
1.41 µM |  | COc1ccc(C(=O)N2CCN(CC(=O)N(C)C)CC2)cc1OCCc1ccc(Cl)cc1Cl [Example 13, 2-(4-{3-[2-(2,4-Dichlorophenyl)-ethoxy]-4-methoxy-benzoyl}-piperazin-1-yl)-N,N-dimethyl-acetamide]
1.38 µM |  | COc1ccc(C(=O)N2CCN(Cc3ccc(C#N)cc3)CC2)cc1OCCc1ccc(Cl)cc1Cl [Example 11, 4-(4-{3-[2-(2,4-Dichloro-phenyl)-ethoxy]-4-methoxy-benzoyl}-piperazin-1-ylmethyl)-benzonitrile]
0.306 µM |  | CCOc1ccc(C(=O)N2CCN(Cc3ccncc3)CC2)cc1OCCc1ccc(Cl)cc1Cl [Example 9, {3-[2-(2,4-Dichloro-phenyl)-ethoxy]-4-ethoxy-phenyl}-(4-pyridin-4-ylmethyl-piperazin-1-yl)-methanone]
0.167 µM |  | COc1cc(C(=O)N2CCN(Cc3ccncc3)CC2)cc(OCCc2ccc(Cl)cc2Cl)c1OC [Example 5, {3-[2-(2,4-Dichloro-phenyl)-ethoxy]-4,5-dimethoxy-phenyl}-(4-pyridin-4-ylmethyl-piperazin-1-yl)-methanone]
